Source: patent US12326492B2, “Systems and methods of detecting interstitial cystitis” (LIPELLA PHARMACEUTICALS, INC., priority 2014, dated 2025)

Columns and labels:
[1] = T1-reducing contrast agents, Table 1; cited from earlier work
[2] = MRI bladder phantom permeability assay (dialysis membrane in gelatin, spin-echo MRI); format: physicochemical; settings: membrane 12-14 kD MW cutoff, 425 μM Gd-DTPA, 5 mM Ferumoxytol in lumen
Excerpt: FIG. 2 is a schematic of synthetic model system (an MRI “bladder phantom”) where membrane porosity and soft matter diffusivity can be controlled. The MRI bladder phantom, shown in FIG. 2, was constructed from clear polycarbonate cylindrical tubes having an outer diameter of 35 mm, a wall thickness of 4 mm, and a length of 90 mm. A sealed (70 mm length, 7 mm diameter) segment of a filled wet dialysis membrane was suspended in the center of each polycarbonate tube lumen and aligned with the tube length, during which a liquid solution (3.125% w/w) of hydrolyzed collagen was added to the lumen of the tube (but not the lumen of the dialysis membrane) and allowed to gel. The dialysis membrane porosity was 12-14 kD MW cutoff. The bladder phantom was placed in a standard mouse MRI RF coil for imaging on a 3-Tesla bench top MRI system with a bore diameter of 160 mm and a 70 mm field of view (MR Solutions, Surrey, UK). […]
This dark line is indicative of a lack of hydrogen nuclei in the liquid state where the dialysis membrane is located, a position that represents the luminal surface of the bladder. […] Since the entire lumen has an increased signal intensity, it is difficult to see without quantitative tools if the gadopentetate dimeglumine (Gd-DTPA) is diffusing into the gelatin an issue that becomes more relevant in a biological setting. […]

Compound	Average Diameter [1] [Å]	diffusion across the dialysis membrane [2]
CNC[C@H](O)[C@@H](O)[C@H](O)[C@H](O)CO.CNC[C@H](O)[C@@H](O)[C@H](O)[C@H](O)CO.O=C([O-])CN(CCN(CC(=O)[O-])CC(=O)O)CCN(CC(=O)O)C(COCc1ccccc1)C(=O)[O-].[Gd+3] (stereo not shown) [MultiHance, Gadobenate Dimeglumine]	11	
CC(O)CN1CCN(CC(=O)[O-])CCN(CC(=O)[O-])CCN(CC(=O)[O-])CC1.[Gd+3] (stereo not shown) [ProHance, Gadoteridol]	7	
CCOc1ccc(CC(CN(CCN(CC(=O)[O-])CC(=O)[O-])CC(=O)[O-])N(CC(=O)[O-])CC(=O)[O-])cc1.[Gd+3].[Na+].[Na+] (stereo not shown) [Eovist, Gadoxetate Disodium]	9	
O=C([O-])CN(CCN(CC(=O)[O-])CC(COP(=O)([O-])OC1CCC(c2ccccc2)(c2ccccc2)CC1)N(CC(=O)[O-])CC(=O)[O-])CC(=O)[O-].[Gd+3].[Na+].[Na+].[Na+] (stereo not shown) [Ablavar, Gadofosveset trisodium]	10	
COCCNC(=O)CN(CCN(CCN(CC(=O)[O-])CC(=O)NCCOC)CC(=O)[O-])CC(=O)[O-].[Gd+3] [OptiMARK, Gadoversetamide]	8	
CNC[C@H](O)[C@@H](O)[C@H](O)[C@H](O)CO.CNC[C@H](O)[C@@H](O)[C@H](O)[C@H](O)CO.O=C([O-])CN(CCN(CC(=O)[O-])CC(=O)O)CCN(CC(=O)[O-])CC(=O)O.[Gd+3] [Magnevist, Gadopentetate dimeglumine]	10	porosity large enough to allow gadopentetate dimeglumine (Gd-DTPA) to pass
CNC(=O)CN(CCN(CCN(CC(=O)[O-])CC(=O)NC)CC(=O)[O-])CC(=O)[O-].[Gd+3] [Omniscan, Gadodiamide]	8	
Gadoterate meglumine [Dotarem]	9	
O=C([O-])CN1CCN(CC(=O)[O-])CCN([C@H](CO)[C@H](O)CO)CCN(CC(=O)[O-])CC1.[Gd+3] (racemic) [Gadovist, Gadobutrol]	8	
